From patent publication US5668152A, “Protein kinase C inhibitors” (priority 1995, dated 1997)
Where two headings read alike, the source gives them in different places.

Experiments:
protein kinase C gamma = protein kinase C gamma (Homo sapiens, UniProt P05129); test: PKC Enzyme assay, gamma isozyme; assay type: biochemical
Method: (§1) PKC enzymes=alpha, beta I, beta II, gamma, delta, epsilon, eta and zeta.
(§2) Assay components in a total volume of 250 μL are the following:
(§3) Vesicles consisting of 120 μg/mL phosphatidylserine (Avanti Polar Lipids) and sufficient diacylglycerol (Avanti Polar Lipids) to activate the enzyme to maximum activity in 20 mM HEPES buffer (Sigma, St. Louis, Mo.), pH 7.5, 940 μM calcium chloride (Sigma, St. Louis, Mo.) for assaying the alpha, beta I, beta II and gamma enzyme only, 1 mM EGTA for all the enzymes, 10 mM magnesium chloride (Sigma, St. Louis, Mo.) and 30 μM (gamma-32P) ATP (DuPont). For all the enzymes either histone type HL (Worthington) or myelin basic protein is used as substrate. The assay is started by addition of protein kinase C enzyme incubated at 30° C. for 10 minutes and stopped by adding 0.5 mL of cold trichloroacetic acid (Amresco) followed by 100 μL of 1 mg/mL bovine serum albumin (Sigma, St. Louis, Mo.). The precipitate is collected by vacuum filtration on glass fiber filters employing a TOMTEC™ filtration system and quantified by counting in a beta scintillation counter.

protein kinase C eta = protein kinase C eta (Homo sapiens, UniProt P24723); test: PKC Enzyme assay, eta isozyme; assay type: biochemical
Chain of protein kinase C eta (P24723 whole entry): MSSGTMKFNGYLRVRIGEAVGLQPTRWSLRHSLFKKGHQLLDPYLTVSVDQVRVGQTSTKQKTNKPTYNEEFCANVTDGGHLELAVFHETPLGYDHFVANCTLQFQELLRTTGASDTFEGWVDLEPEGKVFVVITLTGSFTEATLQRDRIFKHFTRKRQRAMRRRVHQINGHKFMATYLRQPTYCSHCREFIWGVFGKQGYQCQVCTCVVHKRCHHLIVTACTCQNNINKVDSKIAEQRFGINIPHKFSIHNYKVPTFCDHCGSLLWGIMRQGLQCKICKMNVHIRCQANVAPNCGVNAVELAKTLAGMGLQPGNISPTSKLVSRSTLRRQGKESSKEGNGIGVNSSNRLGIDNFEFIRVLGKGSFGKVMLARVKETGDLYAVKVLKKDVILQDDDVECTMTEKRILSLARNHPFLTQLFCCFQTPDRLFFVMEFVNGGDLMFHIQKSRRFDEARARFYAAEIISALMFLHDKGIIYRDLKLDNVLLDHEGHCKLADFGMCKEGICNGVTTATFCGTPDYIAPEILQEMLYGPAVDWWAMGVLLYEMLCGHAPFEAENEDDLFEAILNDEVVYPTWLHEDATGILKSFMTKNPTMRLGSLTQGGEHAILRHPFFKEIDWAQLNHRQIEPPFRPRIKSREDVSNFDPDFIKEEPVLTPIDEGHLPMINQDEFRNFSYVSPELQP
Method: as §1, §2, §3

protein kinase C alpha = protein kinase C alpha (Homo sapiens, UniProt P17252); test: PKC Enzyme assay, alpha isozyme; assay type: biochemical
Method: as §1, §2, §3

protein kinase C beta-2 = protein kinase C beta-2 (Homo sapiens, UniProt P05771); test: PKC Enzyme assay, beta II isozyme; assay type: biochemical
Chain of protein kinase C beta-2 (P05771 1-673 isoform P05771-2): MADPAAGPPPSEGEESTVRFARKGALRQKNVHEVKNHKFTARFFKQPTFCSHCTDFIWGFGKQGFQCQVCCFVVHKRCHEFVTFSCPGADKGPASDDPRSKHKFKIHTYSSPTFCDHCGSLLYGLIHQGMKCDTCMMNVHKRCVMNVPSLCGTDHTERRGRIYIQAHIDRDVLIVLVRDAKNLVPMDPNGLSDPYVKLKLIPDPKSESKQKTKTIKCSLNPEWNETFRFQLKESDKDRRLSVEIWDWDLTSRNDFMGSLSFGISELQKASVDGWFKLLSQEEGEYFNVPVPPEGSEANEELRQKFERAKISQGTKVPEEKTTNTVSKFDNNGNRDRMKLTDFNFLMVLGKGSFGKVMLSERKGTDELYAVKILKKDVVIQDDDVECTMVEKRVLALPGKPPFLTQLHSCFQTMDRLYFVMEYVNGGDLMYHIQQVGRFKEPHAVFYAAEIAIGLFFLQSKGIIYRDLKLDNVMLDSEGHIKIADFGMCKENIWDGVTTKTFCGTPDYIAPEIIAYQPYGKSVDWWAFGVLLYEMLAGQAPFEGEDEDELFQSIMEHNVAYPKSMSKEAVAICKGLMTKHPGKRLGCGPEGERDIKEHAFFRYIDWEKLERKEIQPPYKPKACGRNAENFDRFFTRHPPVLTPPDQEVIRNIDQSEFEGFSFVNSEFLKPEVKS
Method: as §1, §2, §3

protein kinase C zeta = biological target: T1, protein kinase C zeta (Homo sapiens, UniProt Q05513); test: PKC Enzyme assay, zeta isozyme; assay type: biochemical; conditions: PKC zeta; 30 μM ATP, 30° C., 10 minutes; read-out: IC50 ζ
T1 sequence (Q05513 1-592): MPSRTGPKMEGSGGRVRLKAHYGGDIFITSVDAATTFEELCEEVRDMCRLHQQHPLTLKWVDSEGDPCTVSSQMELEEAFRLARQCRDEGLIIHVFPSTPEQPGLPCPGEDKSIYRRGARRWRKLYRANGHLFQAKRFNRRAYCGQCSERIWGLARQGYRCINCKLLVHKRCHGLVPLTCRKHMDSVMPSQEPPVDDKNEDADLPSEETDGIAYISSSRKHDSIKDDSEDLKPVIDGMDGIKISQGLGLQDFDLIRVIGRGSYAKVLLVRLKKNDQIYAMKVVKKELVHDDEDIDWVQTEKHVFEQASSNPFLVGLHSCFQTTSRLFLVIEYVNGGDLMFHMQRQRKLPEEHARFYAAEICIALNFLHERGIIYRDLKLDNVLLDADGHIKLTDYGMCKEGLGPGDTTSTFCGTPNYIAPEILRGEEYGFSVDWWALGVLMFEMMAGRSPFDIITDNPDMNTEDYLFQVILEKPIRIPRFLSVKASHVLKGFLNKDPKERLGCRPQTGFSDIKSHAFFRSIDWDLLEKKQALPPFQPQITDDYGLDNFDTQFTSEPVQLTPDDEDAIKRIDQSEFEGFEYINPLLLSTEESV
Method: as §1, §2, §3

protein kinase C delta = protein kinase C delta (Homo sapiens, UniProt Q05655); test: biochemical
Chain of protein kinase C delta (Q05655 whole entry): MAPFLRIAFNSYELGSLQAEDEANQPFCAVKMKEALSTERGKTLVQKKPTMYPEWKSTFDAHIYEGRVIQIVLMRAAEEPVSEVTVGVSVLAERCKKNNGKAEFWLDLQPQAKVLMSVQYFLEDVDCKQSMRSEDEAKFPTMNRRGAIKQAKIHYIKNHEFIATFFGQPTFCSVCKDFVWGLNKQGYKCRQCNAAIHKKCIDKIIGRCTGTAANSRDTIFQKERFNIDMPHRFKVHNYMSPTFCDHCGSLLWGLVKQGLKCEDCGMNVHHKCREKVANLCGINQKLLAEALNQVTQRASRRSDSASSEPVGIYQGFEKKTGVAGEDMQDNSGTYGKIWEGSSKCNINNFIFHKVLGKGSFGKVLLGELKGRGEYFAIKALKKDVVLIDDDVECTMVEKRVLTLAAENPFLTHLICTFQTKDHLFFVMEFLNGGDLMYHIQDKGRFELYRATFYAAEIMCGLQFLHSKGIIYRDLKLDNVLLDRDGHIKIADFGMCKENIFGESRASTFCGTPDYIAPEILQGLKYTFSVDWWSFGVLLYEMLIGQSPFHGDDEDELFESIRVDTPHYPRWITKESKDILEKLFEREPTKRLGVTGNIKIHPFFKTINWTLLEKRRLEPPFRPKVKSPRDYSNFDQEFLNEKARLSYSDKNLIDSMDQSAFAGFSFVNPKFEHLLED
Method: as §1, §2, §3

protein kinase C epsilon = biological target: T2, protein kinase C epsilon (Homo sapiens, UniProt Q02156); test: PKC Enzyme assay, epsilon isozyme; assay type: biochemical
T2 sequence (Q02156 1-737): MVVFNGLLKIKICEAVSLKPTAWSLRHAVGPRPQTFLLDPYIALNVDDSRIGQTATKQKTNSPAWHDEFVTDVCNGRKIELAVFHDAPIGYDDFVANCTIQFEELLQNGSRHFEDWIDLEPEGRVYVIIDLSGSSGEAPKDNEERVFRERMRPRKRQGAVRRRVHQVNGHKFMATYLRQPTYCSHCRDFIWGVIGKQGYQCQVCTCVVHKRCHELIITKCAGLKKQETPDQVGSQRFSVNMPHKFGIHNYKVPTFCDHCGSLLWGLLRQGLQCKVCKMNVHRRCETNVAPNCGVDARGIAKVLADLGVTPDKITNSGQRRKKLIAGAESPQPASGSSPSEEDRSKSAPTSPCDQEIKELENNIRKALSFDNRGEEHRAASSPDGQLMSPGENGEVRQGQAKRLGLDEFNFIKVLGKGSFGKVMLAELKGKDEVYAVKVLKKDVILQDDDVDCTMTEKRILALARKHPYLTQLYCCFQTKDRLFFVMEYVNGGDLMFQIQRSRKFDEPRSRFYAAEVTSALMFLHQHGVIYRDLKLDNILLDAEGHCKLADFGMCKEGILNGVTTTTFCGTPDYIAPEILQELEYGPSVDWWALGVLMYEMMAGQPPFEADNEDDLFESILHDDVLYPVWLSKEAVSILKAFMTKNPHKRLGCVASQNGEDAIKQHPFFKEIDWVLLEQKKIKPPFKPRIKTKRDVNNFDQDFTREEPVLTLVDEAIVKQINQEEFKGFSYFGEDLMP
Method: as §1, §2, §3

protein kinase C beta-1 = protein kinase C beta-1 (Homo sapiens, UniProt P05771); test: PKC Enzyme assay, beta I isozyme; assay type: biochemical
Chain of protein kinase C beta-1 (P05771 whole entry): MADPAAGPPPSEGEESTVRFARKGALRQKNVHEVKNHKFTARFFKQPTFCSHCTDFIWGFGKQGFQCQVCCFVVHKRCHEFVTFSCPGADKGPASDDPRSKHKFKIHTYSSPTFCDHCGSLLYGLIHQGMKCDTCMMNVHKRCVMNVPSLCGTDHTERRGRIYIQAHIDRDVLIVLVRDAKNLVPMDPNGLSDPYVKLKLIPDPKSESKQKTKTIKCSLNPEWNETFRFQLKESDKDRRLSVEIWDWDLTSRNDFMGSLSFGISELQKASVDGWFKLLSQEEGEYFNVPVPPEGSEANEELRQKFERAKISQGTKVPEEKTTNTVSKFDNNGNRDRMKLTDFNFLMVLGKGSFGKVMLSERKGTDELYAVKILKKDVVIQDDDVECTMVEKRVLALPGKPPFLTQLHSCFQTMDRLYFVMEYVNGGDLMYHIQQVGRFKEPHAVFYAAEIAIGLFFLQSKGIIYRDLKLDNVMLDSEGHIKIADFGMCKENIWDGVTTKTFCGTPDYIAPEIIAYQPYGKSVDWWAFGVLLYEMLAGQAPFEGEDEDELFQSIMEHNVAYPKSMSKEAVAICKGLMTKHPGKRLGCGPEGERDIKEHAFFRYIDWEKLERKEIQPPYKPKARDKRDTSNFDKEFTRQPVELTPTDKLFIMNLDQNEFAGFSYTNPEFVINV
Method: as §1, §2, §3

[1] = PKC gamma, 30 μM ATP, 30° C., 10 minutes, read-out: IC50 γ
[2] = PKC eta, 30 μM ATP, 30° C., 10 minutes, read-out: IC50 η
[3] = PKC alpha, 30 μM ATP, 30° C., 10 minutes, read-out: IC50 α
[4] = PKC beta-2, 30 μM ATP, 30° C., 10 minutes, read-out: IC50 β2
[5] = PKC delta, 30 μM ATP, 30° C., 10 minutes, read-out: IC50 δ
[6] = PKC epsilon, 30 μM ATP, 30° C., 10 minutes, read-out: IC50 ε
[7] = PKC beta-1, 30 μM ATP, 30° C., 10 minutes, read-out: IC50 β1

Row | IC50 (protein kinase C gamma; [1]) | IC50 (protein kinase C eta; [2]) | IC50 (protein kinase C alpha; [3]) | IC50 (protein kinase C beta-2; [4]) | IC50 (protein kinase C zeta) | IC50 (protein kinase C delta; [5]) | IC50 (protein kinase C epsilon; [6]) | IC50 (protein kinase C beta-1; [7]) | Compound | IC50 (protein kinase C beta-2) | IC50 (protein kinase C beta-1) | IC50 (protein kinase C gamma) | IC50 (protein kinase C eta) | IC50 (protein kinase C alpha) | IC50 (protein kinase C delta) | IC50 (protein kinase C epsilon)
1 | 8.2 µM | 3100 nM | 6.5 µM | 210 nM | > 100 µM | 7.3 µM | > 100 µM | 390 nM | CCOC(=O)N1CCC(Cn2cc(C3=C(c4cn(C)c5ccccc45)C(=O)NC3=O)c3ccccc32)CC1 [Example 69, 3-[1-(1N-ethycarbomate-piperidin-4-yl-methylene)-indol-3-yl]-4-[1-methyindol-3-yl]-1H-pyrrole-2,5-dione] |  |  |  |  |  |  | 
2 | 1.1 µM | 100 nM | 0.45 µM | 46 nM | 16 µM | 0.41 µM | 0.68 µM | 39 nM | O=C1NC(=O)C(c2cn(CCCO)c3ccccc23)=C1c1c[nH]c2ccccc12 [Example 11] |  |  |  |  |  |  | 
3 |  | 4000 nM | 10 µM | 360 nM | > 100 µM | 9 µM | > 100 µM | 1600 nM | Cn1cc(C2=C(c3cn(CCO[C@@H]4O[C@H](CN=[N+]=[N-])[C@H](O)[C@H](O)[C@H]4O)c4ccccc34)C(=O)NC2=O)c2ccccc21 [Example 57] |  |  |  |  |  |  | 
4 | 3 µM | 1400 nM | 3.3 µM | 190 nM | 37 µM | 3.2 µM | 70 µM | 320 nM | CC(=O)NCC1OC(OCCCCn2cc(C3=C(c4cn(C)c5ccccc45)C(=O)N(C(C)=O)C3=O)c3ccccc32)CC1OC(C)=O (centres unmarked) [Example 70] |  |  |  |  |  |  | 
5 | 8.2 µM | 2600 nM | 6.6 µM | 200 nM | 47 µM | 4.1 µM | 38 µM | 300 nM | Cn1cc(C2=C(c3cn(CCOC4O[C@H](CO)[C@@H](O)[C@@H](N)[C@H]4O)c4ccccc34)C(=O)NC2=O)c2ccccc21 (some centres unmarked) [Example 67] |  |  |  |  |  |  | 
6 | 25 µM | 4500 nM | 13.5 µM | 1140 nM | 34 µM | 8.8 µM | 30 µM | 1150 nM | O=C1NC(=O)C(c2cn(Cc3ccccc3)c3ccccc23)=C1c1c[nH]c2ccccc12 [Example 14] |  |  |  |  |  |  | 
7 | 0.082 µM | 5 nM | 0.042 µM | 5 nM | 4.8 µM | 0.1 µM | 0.36 µM | 5 nM | Cn1cc(C2=C(c3cn(C4CCN(C(=N)N)CC4)c4ccccc34)C(=O)NC2=O)c2ccccc21 [Example 44, 3-[1-(1-carboxamidine-piperidin-4-yl)-indol-3-yl)-4-(1-methyl-indol-3-yl)-1-pyrrole-2,5-dione] |  |  |  |  |  |  | 
8 | 4.2 µM | 1200 nM | 2.3 µM | 50 nM | 45 µM | 0.95 µM | 6.6 µM | 260 nM | CC(=O)NCC1OC(OCCCCn2cc(C3=C(c4cn(C)c5ccccc45)C(=O)NC3=O)c3ccccc32)CC1OC(C)=O (centres unmarked) [Example 55] |  |  |  |  |  |  | 
9 | 4.8 µM | 750 nM | 3.6 µM | 41 nM | 20 µM | 3.2 µM | 20 µM | 160 nM | Cn1cc(C2=C(c3cn(CCOC4C[C@H](N=[N+]=[N-])[C@@H](CO)O4)c4ccccc34)C(=O)NC2=O)c2ccccc21 (some centres unmarked) [Example 61] |  |  |  |  |  |  | 
10 | 30 µM | 3400 nM | 8.1 µM |  | 47 µM | 8.4 µM |  | 390 nM | Cn1cc(C2=C(c3cn(CCO[C@H]4O[C@H](CN)[C@H](O)[C@H](O)[C@H]4O)c4ccccc34)C(=O)NC2=O)c2ccccc21 [Example 65] |  |  |  |  |  |  | 
11 |  |  |  |  |  |  |  |  | Cn1cc(C2=C(c3cn(C4CCN(C(=O)OC(C)(C)C)CC4)c4ccccc34)C(=O)NC2=O)c2ccccc21 [Example 6, 3-(1-[4-(1-t-butoxycarbonyl)-piperidinyl]-3-indolyl)-4-(1-methyl-3-indolyl)-1H-pyrrole-2,5-dione] | 82 nM | 220 nM | 5.3 µM | 300 nM | 6.1 µM | 7.3 µM | 4.4 µM
12 | 0.3 µM | 40 nM | 0.4 µM | 5 nM |  | 0.3 µM | 0.4 µM | 20 nM | CCN1CCC(n2cc(C3=C(c4cn(C)c5ccccc45)C(=O)NC3=O)c3ccccc32)CC1 [Example 40, 3-[1-(1-Ethyl-piperidin-4-yl)-indol-3-yl]-4-(1-methyl-indol-3-yl)-pyrrole-2,5-dione] |  |  |  |  |  |  | 
13 | 30 µM | 3000 nM | 9 µM |  | 37 µM | 4.4 µM |  | 240 nM | Cn1cc(C2=C(c3cn(CCOC4OC(CN)C(O)C(O)C4O)c4ccccc34)C(=O)NC2=O)c2ccccc21 (centres unmarked) [Example 66] |  |  |  |  |  |  | 

Row | Compound | IC50 (protein kinase C gamma; [1]) | IC50 (protein kinase C eta; [2]) | IC50 (protein kinase C alpha; [3]) | IC50 (protein kinase C beta-2; [4]) | IC50 (protein kinase C zeta) | IC50 (protein kinase C delta; [5]) | IC50 (protein kinase C epsilon; [6]) | IC50 (protein kinase C beta-1; [7]) | IC50 (protein kinase C beta-2) | IC50 (protein kinase C beta-1) | IC50 (protein kinase C gamma) | IC50 (protein kinase C eta) | IC50 (protein kinase C alpha) | IC50 (protein kinase C delta) | IC50 (protein kinase C epsilon)
14 | CC(C)(C)OC(=O)N1CCC(n2cc(C3=C(c4c[nH]c5ccccc45)C(=O)NC3=O)c3ccccc32)CC1 [Example 7] | 2.8 µM | 6200 nM | 3.3 µM | 100 nM | 31 µM | 4.1 µM | 6.3 µM | 230 nM |  |  |  |  |  |  | 
15 | Cn1cc(C2=C(c3cn(C4CCN(Cc5ccccn5)CC4)c4ccccc34)C(=O)NC2=O)c2ccccc21 [Example 49] | 2 µM |  |  |  | 8 µM |  | 0.3 µM |  |  |  |  |  |  |  | 
16 | CN(C)CCCn1cc(C2=C(c3cn(C)c4ccccc34)C(=O)NC2=O)c2ccccc21 [Example 13] | 1.7 µM | 470 nM |  |  | 25 µM | 0.93 µM | 3.6 µM |  | 60 nM | 140 nM |  |  |  |  | 
17 | Cn1cc(C2=C(c3cn(C4CCN(Cc5ccccc5)CC4)c4ccccc34)C(=O)NC2=O)c2ccccc21 [Example 4, 3-(1-[4-(1-benzyl)-piperidinyl]-3-indolyl)-4-(1-methyl-3-indolyl)-1H-pyrrole-2,5-dione] | 7 µM | 500 nM | 6 µM | 30 nM |  | 6 µM | 4 µM | 50 nM |  |  |  |  |  |  | 
18 | Cn1cc(C2=C(c3cn(C4CCNCC4)c4ccccc34)C(=O)NC2=O)c2ccccc21 [Example 52] |  | 200 nM |  |  | 4 µM |  | 1 µM |  |  |  |  |  |  |  | 
